# From patent publication US10501479B2, “Benzenesulfonyl-asymmetric ureas and medical uses thereof” (HELSINN HEALTHCARE SA, priority 2016, dated 2019)
# pEC50, pIC50: −log10 of the molar value. Values joined by “and” are separate entries in the source; they are usually repeats but may differ in a detail not shown here. Equal entries are not always repeated. Where two headings read alike, the source gives them in different places.
# Tests used:
# [1] = target: T1, recombinant human ghrelin receptor (HEK293/GRLN) (Homo sapiens, UniProt Q92847); assay: Ghrelin inverse agonist potency (EC50) with IP-1 (IP-One HTRF) assay; type: cell-based; details: IP-1 assay
# T1 construct: expressed in transfected cells
# T1 sequence (Q92847 whole entry): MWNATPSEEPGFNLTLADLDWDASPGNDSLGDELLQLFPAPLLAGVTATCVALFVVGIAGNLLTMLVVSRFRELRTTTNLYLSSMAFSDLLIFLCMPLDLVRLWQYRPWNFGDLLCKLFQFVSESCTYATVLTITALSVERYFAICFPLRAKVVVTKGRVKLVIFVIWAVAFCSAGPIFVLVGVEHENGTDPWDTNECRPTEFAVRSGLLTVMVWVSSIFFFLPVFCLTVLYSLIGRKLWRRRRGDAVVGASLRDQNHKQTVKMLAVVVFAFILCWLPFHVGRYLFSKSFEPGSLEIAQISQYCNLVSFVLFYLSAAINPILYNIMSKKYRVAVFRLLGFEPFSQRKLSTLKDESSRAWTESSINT
# In short: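 HEK293/GRLN cells were seeded 18-22 hours before the test, then exposed to compound in stimulation buffer for 1 hour at 37° C, 5% CO2. IP-1 was detected by IP-One HTRF (IP1-d2 plus Tb-cryptate, 1 hour RT), reading 620 and 665 nm; the inverse agonist EC50 was derived from this.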
# [2] = target: T2, GHSR-1a (HEK293/GHSR1a cell line) (Homo sapiens, UniProt Q92847); assay: Ghrelin antagonist potency (IC50) with calcium FLIPR assay, ghrelin 10 nM; type: cell-based
# T2 construct: expressed in transfected cells; host or cells: HEK293/GHSR1a cell line
# T2 sequence (Q92847 whole entry): as above
# In short: (§1)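 Potency values were estimated from dose-response curves of relative fluorescence, with calcium followed for 2 minutes after additions at t=20 sec. Agonism was tested with compound alone. Antagonism was tested with compound plus 10 nM ghrelin and scored as a reduction of the ghrelin signal.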
# [3] = Metabolic stability in human liver microsomes; type: in vitro ADME
# In short: (§2)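 Depletion of test compound in NADPH-fortified liver microsomes (pH 7.4 phosphate buffer, 37 °C) is followed over 90 min. Remaining compound in quenched samples is quantified by LC-MS/MS against the time-zero level.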
# [4] = Metabolic stability in rat liver microsomes; type: in vitro ADME
# Experimental: (§3) Metabolic Stability Study
# (§4) The metabolic stability of compounds in human, dog, rat and mouse liver microsomes was performed according the experimental conditions reported below:
# (§5) • a) Prepare the following 5 stock solutions: • 1. Test compound stock solutions: dilute 10 mM solution of dextromethorphan (Dtr) in DMSO, 10 mM solution of diphenhydramine (DPA) in DMSO, 10 mM solution of omeprazole (Ome) in DMSO, 10 mM solution of verapamil (Ver) in DMSO, and 10 mM of an inverse agonist compound in DMSO to 0.25 mM solution each with acetonitrile/water (70/30). • 2. Buffer: 100 mM potassium phosphate Buffer (PBS) at pH 7.4 • 3. Liver microsomes (20 mg/ml): Thaw in 37° C. water bath quickly • 4. 2000 μL: of NADPH regenerating system (1.3 mM). Place this system on ice before use:
# (§6) • 5. […] The test compound concentration in the wells, measured by LC-MS/MS, represents the concentration at time=0. • f) To determine the test compound concentration when t≠0, pre-incubate the NADPH regenerating system and the incubation plate containing the remaining 320 μL of incubation mixture (microsomes protein and test compound) for 5 minutes at 37° C. • g) Start the incubation reaction by adding 80 μL NADPH regenerating system to each well containing the remaining 320 μL incubation mixture. • h) After 10 min., 30 min., and 90 min. of incubation at 37° C., transfer 100 μL of the incubation mixture (microsomes protein, test compound, and NADPH) into the wells of a stop plate pre-filled with 300 μL of the cold quench solution. Shake well. • i) Centrifuge the stop plate at 5000×g for 10 minutes. Collect and dilute the supernatant 3 times with distilled water. Sample and analyze the test compound concentration for all the wells by LC-MS/MS. Animal PK Studies via i.v. (intravenous), p.o. (orally) and s.c. (subcutaneous) administrations
# [5] = Metabolic stability in mouse liver microsomes; type: in vitro ADME
# In short: as §2
# [6] = Animal PK study in mouse via i.v., p.o. and s.c. administration; type: in vivo; details: for Vd / clearance / half-life: plasma; for clearance: read-out: PK CL i.v.
# In short: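 Single i.v. (tail vein), s.c. (neck scruff) or p.o. (gavage) dose to mice or rats; oral vehicle 1–5% DMSO/0.5% methylcellulose, i.v./s.c. vehicle 1–5% DMSO in 20% HP-β-cyclodextrin. Plasma sampled 0.083 (i.v./s.c.) or 0.25 to 24 h, analyzed by LC-MS/MS.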
# [7] = Plasma protein binding (PPB), human; type: in vitro ADME; details: read-out: PPB (H)
# [8] = Plasma protein binding (PPB), mouse; type: in vitro ADME
# [9] = Metabolic stability in dog liver microsomes; type: in vitro ADME
# Experimental: as §3, §4, §5, §6
# [10] = Plasma protein binding (PPB), human; type: in vitro ADME; details: read-out: PPB (H) (converted)
# [11] = Plasma protein binding (PPB), mouse; type: in vitro ADME; remark: listed apart in the source
# [12] = target: T2, GHSR-1a (HEK293/GHSR1a cell line); assay: Ghrelin agonist potency (EC50) with calcium FLIPR assay; type: cell-based; details: HEK293/GHSR1a, read-out: Activity EC50/EMax: EC50 (ghrelin agonist potency)
# In short: as §1
# [13] = Animal PK study in rat via i.v., p.o. and s.c. administration; type: in vivo; details: rat, i.p.
# [14] = inverse agonist potency, read-out: EC50 (Activity)
# [15] = ghrelin antagonist potency, read-out: IC50 (Activity)
# [16] = HEK293/GRLN, read-out: Activity EC50 (ghrelin inverse agonist potency)
# [17] = HEK293/GHSR1a, ghrelin 10 nM, read-out: Activity IC50 (ghrelin antagonist potency)
# [18] = po, 10 mg/kg, p.o., read-out: PK t1/2 p.o.
# [19] = iv, 5 mg/kg, i.v., read-out: PK t1/2 i.v.
SMILES,"pEC50 [1, 14]","pIC50 [2, 15]",Metabolic Stability Study H = human [3],Metabolic Stability Study M = mouse [5],PK F [6] [%],fraction unbound [7],fraction unbound [8],"pEC50 [1, 16]","pIC50 [2, 17]",PK CL p.o. ([6]; p.o.) [mL/min/kg],PK Vd p.o. ([6]; p.o.) [L/kg],"Vd ([6]; iv, 5 mg/kg) [L/kg]","clearance ([6]; iv, 5 mg/kg, i.v.) [mL/min/kg]","half-life [6, 18] [h]",fraction unbound [10],fraction unbound [11],pEC50 [12],"half-life [6, 19] [h]",other results
"C[C@H](NC(=O)Nc1ccc(S(=O)(=O)Nc2ccc(CC(C)(C)N)cc2)cc1)c1ccc(-c2cnccn2)c(Cl)c1Cl [H0906, (S)-N-(4-(2-amino-2-methylpropyl)phenyl)-4-(3-(1-(2,3-dichloro-4-(pyrazin-2-yl)phenyl)ethyl)ureido) benzenesulfonamide]",8.17,7.72,19.9 µL/min/mg,24.4 µL/min/mg,0.1,0.0016,0.0004,,,,,,,,,,,,Metabolic Stability Study R = rat [4]: 13.6 µL/min/mg; PK CLiv ([6]; i.v.): 3 mL/min/kg; PK Vdiv ([6]; i.v.): 0.27 L/kg; PK t1/2iv ([6]; i.v.): 1.03 h; PK CLpo ([6]; p.o.): 3991.2 mL/min/kg; PK Vdpo ([6]; p.o.): 479.77 L/kg; PK t1/2po ([6]; p.o.): 1.39 h
COc1ccc([C@H](C)NC(=O)Nc2ccc(S(=O)(=O)Nc3ccc4c(c3)CCN(C)C4)cc2)c(Cl)c1Cl [H1017],8.01,7.14,11.5 µL/min/mg,30.5 µL/min/mg,,0.001,0.0003,,,,,,,,,,,,
"CC(c1ccccc1)N(C)C(=O)Nc1ccc(S(=O)(=O)Cc2ccc3c(c2)CN(C)C3)cc1 (centres unmarked) [H1381, 1-methyl-3-(4-(((2-methylisoindolin-5-yl)methyl)sulfonyl)phenyl)-1-(1-phenylethyl)urea]",,,60 µL/min/mg,68.1 µL/min/mg,20.64,,,7.66 and 7.48,6.32 and 6.59,295,42.87,3.1,63.8,1.68,0.0906,0.0854,,,Metabolic Stability Study D = dog [9]: 88.7 µL/min/mg
"Cl.O=C(NCc1cccc(Cl)c1Cl)Nc1ccc(S(=O)(=O)Cc2ccc3c(c2)CNC3)cc1 [H1057, 1-(2,3-dichlorobenzyl)-3-(4-((isoindolin-5-ylmethyl)sulfonyl)phenyl)urea]",8.16,7.71,12.6 µL/min/mg,10.8 µL/min/mg,1.6,0.005,0.005,,,,,,,,,,,,PK CLiv ([6]; i.v.): 26.2 mL/min/kg; PK Vdiv ([6]; i.v.): 2.18 L/kg; PK t1/2iv ([6]; i.v.): 0.96 h; PK CLpo ([6]; p.o.): 1371 mL/min/kg; PK Vdpo ([6]; p.o.): 368.9 L/kg; PK t1/2po ([6]; p.o.): 3.11 h
"COc1cc(S(=O)(=O)Cc2ccc3c(c2)CNC3)ccc1NC(=O)NC(C)c1cccc(Cl)c1Cl.Cl (centres unmarked) [H1421, 1-(1-(2,3-dichlorophenyl)ethyl)-3-(4-((isoindolin-5-ylmethyl)sulfonyl)-2-methoxyphenyl)urea]",,,13.2 µL/min/mg,38.8 µL/min/mg,,,,9.40,8.74,,,,,,0.0037,0.0034,< 4.30,,"half-life ([13]; plasma, ip, read-out: PK t1/2 i.p. (R)): 19 h; PK CL i.p. (R) [13]: 32.7 mL/min/kg; PK Vd i.p. (R) [13]: 54.56 L/kg"
"COc1cc(S(=O)(=O)Cc2ccc3c(c2)CN(C)C3)ccc1NC(=O)NC(C)c1ccccc1 (centres unmarked) [H1388, 1-(2-methoxy-4-(((2-methylisoindolin-5-yl)methyl)sulfonyl)phenyl)-3-(1-phenylethyl)urea]",,,58.1 µL/min/mg,42.4 µL/min/mg,11.3,,,8.34,7.99,675,86.8,6.3,77.7,1.49,0.031,0.079,< 4.52,0.93,
"COc1cc(S(=O)(=O)Cc2ccc3c(c2)CC(C)NC3)ccc1NC(=O)NC(C)c1ccccc1 (centres unmarked) [H1441, 1-(2-methoxy-4-(((3-methyl-1,2,3,4-tetrahydroisoquinolin-6-yl)methyl)sulfonyl)phenyl)-3-(1-phenylethyl)urea]",,,17.3 µL/min/mg,16.4 µL/min/mg,,,,8.37 and 8.48,7.83 and 7.39,,,,,,0.0245,0.045,< 4.52,,
"COc1ccc([C@@H](C)NC(=O)Nc2ccc(S(=O)(=O)Cc3ccc4c(c3)CCN(C)C4)cc2)c(Cl)c1Cl [H1417, (R)-1-(1-(2,3-dichloro-4-methoxyphenyl)ethyl)-3-(4-(((2-methyl-1,2,3,4-tetrahydroisoquinolin-6-yl)methyl)sulfonyl)phenyl)urea]",,,48.9 µL/min/mg,53.4 µL/min/mg,11.80,,,8.01,7.35,226.8,24.97,4.74,26.2,1.27,0.0015,0.0012,< 4.52,2.09,
"CC(NC(=O)Nc1ccc(S(=O)(=O)Cc2ccc3c(c2)CNC3)cc1)c1ccc(F)cc1 (centres unmarked) [H1262, 1-(1-(4-fluorophenyl)ethyl)-3-(4-((isoindolin-5-ylmethyl)sulfonyl)phenyl)urea]",,,18.2 µL/min/mg,11.2 µL/min/mg,1.13,,,8.12,7.97,1847,307,1.69,21.8,1.92,0.099,0.05,< 4.52,0.89,
"C[C@H](NC(=O)Nc1ccc2c(c1)CC(c1ccc3c(c1)CNC3)S2(=O)=O)c1ccccc1 (stereo partly drawn) [H1264, 1-(2-(isoindolin-5-yl)-1,1-dioxido-2,3-dihydrobenzo[b]thiophen-5-yl)-3-((S)-1-phenylethyl)urea]",,,H < 10 M < 10 R = not reported D = not reported μL/min/mg,H < 10 M < 10 R = not reported D = not reported μL/min/mg,0.36,,,,8.36,,627.9,4.83,48.2,0.64,0.221,0.185,,1.16,
